SMILES strings stand for the structures. Values joined by “and” are separate entries in the source; they are usually repeats but may differ in a detail not shown here. Equal values may be shown once.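 Briefly, cells in 96-well plates were exposed to five compound concentrations for 48 h, and endpoints were estimated by linear interpolation. Abbreviation: GI50, concentration required for 50% inhibition of growth. The concentration for full growth arrest is given as TGI.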 A value given as a limit tells only on which side of the number the result lay.

Among the test systems are HOP-62 NSCLC; SNB-75 CNS; K-562 leukemia; SW-620 colon; OVCAR-5 ovarian; NCI/ADR-RES ovarian; UACC-257 melanoma; A549 NSCLC; RPMI-8226 leukemia; NCI-H23 lung.
Common to all, as to assay: DTP human tumour cell line panel, 48 h

Take `Brc1ccccc2cc(-c3ccccc3)nc1-2`: the TGI (commonly the concentration giving total growth inhibition) in the assay with HOP-62 NSCLC is 42.9 µM; with SNB-75 CNS, 51.5 µM; in the assay with K-562 leukemia it was greater than 61.2 µM; with SW-620 colon, greater than 36.2 µM; in the assay with OVCAR-5 ovarian it was 35 µM; with NCI/ADR-RES ovarian, 44.6 µM. In addition, the TGI in the assay on UACC-257 melanoma amounted to 32 µM; in the assay with A549 NSCLC, 53 µM; with RPMI-8226 leukemia it was 29.7 µM; in the assay with NCI-H23 lung, 21.2 µM.

For the compound `CC12OC(CC(O)C1O)n1c3ccccc3c3c4c(c5c6ccccc6n2c5c31)C(=O)N(CCN1CCOCC1)C4=O` (configuration not stated), the GI50 (commonly the concentration that inhibits growth by half) with HOP-62 NSCLC is 1.27 µM; with SNB-75 CNS it was 0.765 µM; in the assay with K-562 leukemia, 1.25 µM; with SW-620 colon it was 0.626 µM; in the assay on OVCAR-5 ovarian, 2.32 µM; in the assay on NCI/ADR-RES ovarian it was 1.82 µM. The GI50 was 1.97 µM in the assay with UACC-257 melanoma, 0.4 µM with A549 NSCLC, 1.55 µM in the assay on RPMI-8226 leukemia and 1.05 µM in the assay with NCI-H23 lung. Also, the TGI was 4.22 µM with HOP-62 NSCLC; 5.37 µM in the assay on SNB-75 CNS; 10.4 µM with K-562 leukemia; 7.42 µM with SW-620 colon; 9.65 µM in the assay on OVCAR-5 ovarian; 8.31 µM in the assay with NCI/ADR-RES ovarian. Moreover, the TGI in the assay with UACC-257 melanoma is 7.64 µM; with A549 NSCLC, 2.35 µM; in the assay on RPMI-8226 leukemia it was 9.87 µM; in the assay on NCI-H23 lung, 4.87 µM.

Regarding `CCN(CC)CCNC(=O)c1cccc2c1-c1ccccc1C2=O`, the GI50 was greater than 100 µM in the assay on HOP-62 NSCLC; greater than 100 µM in the assay on SNB-75 CNS; greater than 100 µM in the assay on K-562 leukemia; 90.1 µM in the assay with SW-620 colon; greater than 100 µM in the assay on OVCAR-5 ovarian; greater than 100 µM with NCI/ADR-RES ovarian. In addition, the GI50 is greater than 100 µM with UACC-257 melanoma, greater than 100 µM in the assay with A549 NSCLC, 66.3 µM with RPMI-8226 leukemia and greater than 100 µM in the assay on NCI-H23 lung. The TGI in the assay on HOP-62 NSCLC, with SNB-75 CNS, in the assay on K-562 leukemia, with SW-620 colon, with OVCAR-5 ovarian and in the assay on NCI/ADR-RES ovarian was greater than 100 µM throughout. Besides, the TGI in the assay on UACC-257 melanoma, in the assay on A549 NSCLC, with RPMI-8226 leukemia and in the assay on NCI-H23 lung was greater than 100 µM throughout.

Take `NS(=O)(=O)c1ccc(N=Nc2ccc[nH]c2=O)cc1`: the concentration for total growth inhibition (TGI) with HOP-62 NSCLC, in the assay on SNB-75 CNS, in the assay on K-562 leukemia, in the assay with SW-620 colon, with OVCAR-5 ovarian and in the assay with NCI/ADR-RES ovarian was greater than 100 µM in each case. For the same compound, the TGI with UACC-257 melanoma, with A549 NSCLC, with RPMI-8226 leukemia and in the assay with NCI-H23 lung was greater than 100 µM in each case.

Turning to `CCOc1cc(-c2nncn2C)ccc1Nc1ncc2cc(C)nc(NCC(C)(C)C)c2n1`, the GI50 is greater than 26.2 µM in the assay on HOP-62 NSCLC; greater than 26 µM in the assay on SNB-75 CNS; 0.439 µM in the assay on SW-620 colon; greater than 100 µM with OVCAR-5 ovarian; 1.06 µM with NCI/ADR-RES ovarian; greater than 100 µM in the assay with UACC-257 melanoma. The GI50 with A549 NSCLC is 2.34 µM; in the assay with RPMI-8226 leukemia, 2.31 µM; in the assay on NCI-H23 lung, greater than 89.7 µM. For the same compound, the TGI in the assay on HOP-62 NSCLC, with SNB-75 CNS, in the assay with K-562 leukemia, with SW-620 colon, with OVCAR-5 ovarian and in the assay on NCI/ADR-RES ovarian was greater than 100 µM each time. Also, the total growth inhibition concentration (TGI) with UACC-257 melanoma, in the assay on A549 NSCLC, with RPMI-8226 leukemia and in the assay with NCI-H23 lung was greater than 100 µM in each case.

Consider `Cc1ccc(/C=N/NC(=O)c2ccccc2Oc2ccccc2)o1`, for which the GI50 in the assay with HOP-62 NSCLC was 70.9 µM; in the assay on SNB-75 CNS, 12.8 µM; in the assay on K-562 leukemia it was 33.8 µM; in the assay on SW-620 colon, greater than 77.6 µM; in the assay with OVCAR-5 ovarian it was greater than 93 µM; in the assay with NCI/ADR-RES ovarian, 25.9 µM. Besides, the GI50 in the assay on UACC-257 melanoma was 36.5 µM; in the assay on A549 NSCLC it was 43.5 µM; in the assay with RPMI-8226 leukemia, 23.8 µM; in the assay on NCI-H23 lung it was 39.2 µM. Also, the concentration for total growth inhibition (TGI) in the assay with HOP-62 NSCLC, in the assay with SNB-75 CNS, in the assay on K-562 leukemia, in the assay on SW-620 colon, in the assay on OVCAR-5 ovarian and in the assay on NCI/ADR-RES ovarian was greater than 100 µM in each case. In addition, the TGI is greater than 100 µM in the assay with UACC-257 melanoma, greater than 100 µM with A549 NSCLC, greater than 88.4 µM with RPMI-8226 leukemia and greater than 100 µM with NCI-H23 lung.

Consider `Cc1ccc(C[As+](c2ccccc2)(c2ccccc2)c2ccccc2)cc1`, for which the GI50 with HOP-62 NSCLC was 1.5 µM; with SNB-75 CNS, 1.1 µM; in the assay with K-562 leukemia, 0.466 µM; in the assay on SW-620 colon it was 0.99 µM; in the assay with OVCAR-5 ovarian, 1.74 µM; with NCI/ADR-RES ovarian, 49.1 µM. Besides, the GI50 in the assay on UACC-257 melanoma was 0.279 µM; in the assay on A549 NSCLC, 0.588 µM; in the assay with RPMI-8226 leukemia it was 0.218 µM; in the assay on NCI-H23 lung it was 1.02 µM. Further, the TGI with HOP-62 NSCLC was 32.9 µM; in the assay with SNB-75 CNS, 10.3 µM; with K-562 leukemia it was 21.9 µM; in the assay on SW-620 colon it was greater than 38.1 µM; with OVCAR-5 ovarian it was greater than 87.2 µM; with NCI/ADR-RES ovarian it was greater than 100 µM. Besides, the TGI in the assay with UACC-257 melanoma came to 1.75 µM; in the assay with A549 NSCLC, 35.8 µM; in the assay on RPMI-8226 leukemia it was 3.24 µM; with NCI-H23 lung, 9.36 µM.

As to `CNC(=O)ON(C(C)=O)C(=O)NC`, the total growth inhibition concentration (TGI) in the assay on HOP-62 NSCLC came out at 309 µM; with SNB-75 CNS, 182 µM; in the assay with K-562 leukemia, 241 µM; in the assay on SW-620 colon, 224 µM; in the assay on OVCAR-5 ovarian, 276 µM; in the assay on NCI/ADR-RES ovarian it was 266 µM. For the same compound, the TGI was 159 µM in the assay on UACC-257 melanoma; 283 µM with A549 NSCLC; > 77.2 µM and 111 µM in the assay with RPMI-8226 leukemia; 156 µM with NCI-H23 lung. Also, the GI50 was 51.8 µM and 26.6 µM in the assay with K-562 leukemia; greater than 94 µM in the assay with SW-620 colon; 41.4 µM and 25.2 µM in the assay with RPMI-8226 leukemia.
